Data on 9 compounds can be found in ChEMBL document CHEMBL4177666, “Compound design guidelines for evading the efflux and permeation barriers of Escherichia coli with the oxazolidinone class of antibacterials: Test case for a general approach to improving whole cell Gram-negative activity” (Bioorg Med Chem Lett, 2017).

Each structure is given as a SMILES string. ≈ marks a conversion by molar mass, not a printed value.

Common to all, as to type: functional
In assay [1] the target is Bacterial 70S ribosome. Nature of the assay: Inhibition of protein synthesis in Escherichia coli ribosomes incubated for 1 hr at 37 degC by SDS-PAGE and Gaussia luciferase reporter gene assay. (Reporter assays use an easily measured gene product as a stand-in for the process of interest.)
Assay [2] deals with Escherichia coli. Nature of the assay: Antibacterial activity against gram-negative wild type Escherichia coli MG1655 by CLSI broth microdilution method. For orientation: In broth dilution the organism is exposed to a series of concentrations in liquid medium.
For assay [3], the system named is Escherichia coli. Put plainly: Efflux index, ratio of MIC for wild type Escherichia coli MG1655 to MIC for Escherichia coli MG1655 expressing AcrAB-TolC efflux pump deletion mutant.
For assay [4], the system named is Staphylococcus aureus. Nature of the assay: Antibacterial activity against methicillin-susceptible Staphylococcus aureus ATCC 29213 by CLSI broth microdilution method.
In assay [5] the test system is Escherichia coli. Put plainly: Permeability index, ratio of MIC for wild type Escherichia coli MG1655 to MIC for Escherichia coli MG1655 membrane permeabilized mutant in presence of polymyxinnonapeptide.
In assay [6] the test system is Escherichia coli. Put plainly: Antibacterial activity against gram-negative Escherichia coli MG1655 expressing AcrAB-TolC efflux pump deletion mutant by CLSI broth microdilution method.
Assay [7] deals with Escherichia coli. Nature of the assay: Antibacterial activity against gram-negative Escherichia coli MG1655 membrane permeabilized mutant in presence of polymyxinnonapeptide by CLSI broth microdilution method.

By IC50 is commonly meant the concentration at which inhibition is half-maximal. Low values mean higher potency, high ones lower potency. In general, MIC refers to the lowest concentration found to suppress growth. The compound `NCc1ncc(-c2ccc(N3C[C@H](CO)OC3=O)cc2F)cc1O` gave an IC50 in assay [1] of 192 µM. Moreover, the MIC in assay [2] came out at 51 µg/mL (≈ 153 µM); in assay [4], 20 µg/mL (≈ 60 µM). The Ratio in assay [3] and in assay [5] was 1.6 throughout.

In assay [1], `CC(=O)NC[C@H]1CN(c2ccc(N3CCOCC3)c(F)c2)C(=O)O1` [LINEZOLID] had a half-inhibitory concentration (IC50) of 23.7 µM. Moreover, the MIC was found to be 130 µg/mL (≈ 385 µM) in assay [2], 3.1 µg/mL (≈ 9.19 µM) in assay [4], 11 µg/mL (≈ 32.6 µM) in assay [6] and 36 µg/mL in assay [7]. Further, the Ratio stood at 12 in assay [3] and 3.6 in assay [5].

In the case of `Nc1cc(-c2ccc(N3C[C@H](CNC(=O)C(F)(F)F)OC3=O)cc2F)ccn1`, the minimum inhibitory concentration (MIC) in assay [2] is > 32 µg/mL; in assay [4], 4 µg/mL (≈ 10 µM); in assay [6], 8 µg/mL (≈ 20.1 µM); in assay [7], 16 µg/mL. Further, the Ratio result in assay [3] is “>=8”; in assay [5] it was “>=4”.

For the compound `N#Cc1cc(O)cc(-c2ccc(N3C[C@H](Cn4nccn4)OC3=O)cc2F)c1`, the MIC is > 256 µg/mL in assay [2], 32 µg/mL (≈ 84.4 µM) in assay [4], 64 µg/mL (≈ 169 µM) in assay [6] and 64 µg/mL in assay [7]. Besides, the Ratio in assay [3] and in assay [5] was >4 throughout.

With `O=C(NC[C@H]1CN(c2ccc(-c3ccc(F)c(O)c3)c(F)c2)C(=O)O1)C(F)F`, the MIC in assay [2] is > 32 µg/mL; in assay [4], 1 µg/mL (≈ 2.51 µM); in assay [6], 4 µg/mL (≈ 10 µM); in assay [7], 8 µg/mL. In addition, the values for the Ratio in assay [3] and in assay [5] were >8 and >4, respectively.

For `CC(=O)NC[C@H]1CN(c2ccc(-c3ccc(C#N)c(O)c3)c(F)c2)C(=O)O1`, the minimum inhibitory concentration (MIC) in assay [2] was > 256 µg/mL; in assay [4] it was 2 µg/mL (≈ 5.41 µM); in assay [6], 32 µg/mL (≈ 86.6 µM); in assay [7], 32 µg/mL. Further, the Ratio in assay [3] and in assay [5] was >8 each time.

As to `O=C1O[C@@H](CO)CN1c1ccc(-c2cc(O)ccc2F)cc1`, the MIC in assay [2] is > 256 µg/mL; in assay [4] it was 1 µg/mL (≈ 3.3 µM); in assay [6], 16 µg/mL (≈ 52.8 µM); in assay [7], 32 µg/mL. Also, the Ratio is recorded as >16 in assay [3] and >8 in assay [5].

As to `CC(=O)NC[C@H]1CN(c2ccc(-c3ccc(F)c(O)c3)c(F)c2)C(=O)O1`, the MIC in assay [2] is > 256 µg/mL; in assay [4], 2 µg/mL (≈ 5.52 µM); in assay [6], 8 µg/mL (≈ 22.1 µM); in assay [7], 16 µg/mL. Moreover, the Ratio in assay [3] was >32; in assay [5] it was >16.

For `NCc1ccc(-c2ccc(N3C[C@H](Cn4cc(CN)nn4)OC3=O)cc2F)cc1`, the MIC in assay [2] was > 256 µg/mL; in assay [4], 8 µg/mL (≈ 20.2 µM); in assay [6], 128 µg/mL (≈ 323 µM); in assay [7] it was 128 µg/mL. For the same compound, the Ratio in assay [3] and in assay [5] was >2 throughout.
